Measurements: patent US7670791B1, “Method for the suppression of visceral pain by regulating T-type calcium channel” (Korea Institute of Science and Technology, priority 2001, dated 2010)

Experiments:
[1] = tested on: visceral pain caused by acetic acid in normal mice; test: Acetic acid-induced visceral pain (writhing test) after mibefradil injection; format: in vivo
Procedure: The present inventors injected 0.6% acetic acid into the peritoneal cavity of mice to examine the acetic acid-induced visceral pain response. The visceral pain is elicited secondarily to a delayed inflammatory response and induced abdominal stretching and writhing behavior (Gyires and Torma, Arch Int. Pharmacodyn. Ther., 1984, 267:131-140). Mice were placed individually in a transparent home cage (24×18×12 cm) and allowed to acclimate for at least 60 min. Then, 0.6% acetic acid ([…]) was injected into the peritoneum, after which the mice was returned to the testing chamber. The number of abdominal stretches or writhing motions was counted for 20 min. All mice were used only once in this experiment. […]
Particularly, in order to find out how mibefradil, the T-type calcium channel inhibitor functions, mibefreail was dissolved in 0.9% of NaCl at the concentration of 5 mg/ml. The degree of writhing was measured in a visceral pain inducing experiment 20 minutes after the injection of the said mibefradil at the concentration of 1, 10 and 30 mg/kg respectively in peritoneum of the mice.

[2] = inside the body, after peripheral (peritoneal) injection; cited from earlier work

COCC(=O)O[C@]1(CCN(C)CCCc2nc3ccccc3[nH]2)CCc2cc(F)ccc2[C@@H]1C(C)C [mibefradil, Mibefradil]
degree of writhing / visceral pain caused by acetic acid ([1]; normal (wild-type) mice, mibefradil 1, 10 and 30 mg/kg in peritoneum, 20 minutes before test, 0.6% acetic acid i.p., FIG. 4): induced analgesia | visceral pain caused by acetic acid ([1]; wild-type mice, mibefradil injected in the brain): enhanced | passage through the brain barrier [2]: cannot pass through the brain barrier
